Values joined by “and” are separate entries in the source; they are usually repeats but may differ in a detail not shown here. Equal entries are not always repeated. Marks after values point to notes of the source that are not given here.
What was measured:
[1] = tested on: Gut Microbiota in HFD-Fed Mice; experiment: Gut microbiota classification by next generation sequencing (Example 4); type: in vivo, mouse
Protocol: Total DNA was extracted from fresh fecal samples by using the innuPREP Stool DNA kit (Analytik Jena AG, Jena, Germany) according to the manufacturer's instructions. According to the concentration, DNA was diluted to 1 ng μ L^−1 using sterile water. 6SrRNA/18SrRNA/ITS genes of distinct region (16SV4/16SV3/16SV3-V4/16SV4-V5, 18S V4/18S V9, ITS1/ITS2, Arc V4) were amplified using a specific primer (e.g. 16SV4: 515F-806R, 18S V4: 528F-706R, and 18S V9: 1380F-1510R) with a barcode. All PCR reactions were carried out using a Phusion® High-Fidelity PCR master mix (New England Biolabs, Ipswich, Mass., USA). The PCR products were mixed in ratios of equal density. Then, the mixed PCR products were purified using a Qiagen gel extraction kit (Qiagen, Hilden, Germany). Sequencing libraries were generated using the TruSeq® DNA PCR-free sample preparation kit (Illumina, San Diego, Calif., USA) following the manufacturer's recommendations, and index codes were added. The library quality was assessed using the Qubit@ 2.0 Fluorometer (Thermo Scientific) and Agilent Bioanalyzer 2100 system. Lastly, the library was sequenced using an Illumina HiSeq 2500 platform, and 250 bp paired-end reads were generated. The classification was based on the Greengenes database (https://greengenes.lbl.gov/).

[2] = tested on: HFD-Induced Obese Mice (C57BL/6); details: mouse, in vivo
Protocol: (§1) Four-week-old, male C57BL/6 mice were purchased from the BioLASCO Experimental Animal Center (Taiwan Co., Ltd., Taipei, Taiwan) and housed in a controlled atmosphere (25±1° C. at 50% relative humidity) with a 12 h light/12 h dark cycle. After 1 week of acclimation, animals were randomly distributed into 6 groups as follows: normal diet (ND, 15% energy from fat), high-fat diet (HFD, 50% energy from lard-based fat), and HFD supplemented with 0.01% garcinol (GAR group), 0.025% Forskolin (FOR group), 0.005% GAR+0.025% FOR (LMIX group), and 0.01% Gar+0.025% For (HMIX group) for 12 weeks. […] Animals had free access to food and water. Food consumption was monitored daily and the body weight was recorded weekly. At the end of the experiments, all animals were sacrificed by CO2 asphyxiation. Blood samples were collected from the heart for biochemical analysis. The liver, spleen, kidney, fat pads (perigonadal, retroperitoneal, and mesenteric fat), and fresh fecal pellets were immediately removed and stored at −80° C. until further analysis.
(§2) Liver and the perigonadal adipose tissue were dissected and fixed in 10% buffered formalin for at least 24 h, dehydrated with a sequence of ethanol solutions, and processed for embedding in paraffin. Sections of 4 μm in thickness were cut, deparaffinized, rehydrated, stained with hematoxylin and eosin (H&E), and subjected to photo microscopic observation. Adipocyte size was measured at 100× magnification and determined by Image J software (U. S. National Institutes of Health, Bethesda, Md., USA).

[3] = tested on: HFD-Induced Obese Mice (C57BL/6); experiment: GAR, FOR, LMIX, HMIX in HFD-induced obese mice, 12 weeks (Example 4)
Protocol: as §1, §2

[4] = 0.01% GAR, 0.025% FOR, LMIX, HMIX

- Kidney [2]: 0.4 ± 0.02^a g
- Spleen [2]: 0.06 ± 0.01^a g
Compound: C=C[C@@]1(C)CC(=O)[C@]2(O)[C@@]3(C)[C@@H](O)CCC(C)(C)[C@@H]3[C@H](O)[C@H](OC(C)=O)[C@@]2(C)O1 [FOR, Forskolin, reference compound]
- abundance of Firmicutes ([1]; 12 weeks (HFD group 43.0%)): 33.5%
- abundance of Bacteroidetes ([1]; 12 weeks (HFD group 50.2%)): 62.2%
- OTUs difference between ND and HFD groups (Venn diagram) ([1]; 12 weeks, FIG. 23A): 34 OTUs
- Final weight [3, 4]: 30.5 g and 30.5 ± 2.6^c g
- Weight gain [3, 4]: 9.1 ± 1.8^c g
- Liver ([3]; organ weight): 1.5 ± 0.2^bc g
